Results published in PubChem BioAssay (NCI).
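Protocol summary: plate cells (96-well), add compound at 5 concentrations, incubate 48 h, interpolate endpoints linearly. TGI is the concentration that stops growth completely.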

How the values were obtained:
Test in all cases: NCI-60 cell line screen, 48 h
MOLT-4 leukemia = test system: MOLT-4 leukemia
RPMI-8226 leukemia = test system: RPMI-8226 leukemia
SK-OV-3 ovarian = test system: SK-OV-3 ovarian
SW-620 colon = test system: SW-620 colon
LOX IMVI melanoma = test system: LOX IMVI melanoma
U251 CNS = test system: U251 CNS
SF-268 CNS = test system: SF-268 CNS
IGROV1 ovarian = test system: IGROV1 ovarian
SK-MEL-2 melanoma = test system: SK-MEL-2 melanoma
OVCAR-3 ovarian = test system: OVCAR-3 ovarian
KM12 colon = test system: KM12 colon
PC-3 prostate = test system: PC-3 prostate
HCT-116 colon = test system: HCT-116 colon
HCC-2998 colon = test system: HCC-2998 colon
M14 melanoma = test system: M14 melanoma
MDA-MB-231 breast = test system: MDA-MB-231 breast
MALME-3M melanoma = test system: MALME-3M melanoma
TK-10 renal = test system: TK-10 renal
SNB-19 CNS = test system: SNB-19 CNS
EKVX NSCLC = test system: EKVX NSCLC
HL-60(TB) leukemia = test system: HL-60(TB) leukemia
UO-31 renal = test system: UO-31 renal
NCI-H460 lung = test system: NCI-H460 lung
MCF7 breast = test system: MCF7 breast
NCI-H522 lung = test system: NCI-H522 lung
SR leukemia = test system: SR leukemia
A498 renal = test system: A498 renal
A549 NSCLC = test system: A549 NSCLC
NCI-H226 lung = test system: NCI-H226 lung
SNB-75 CNS = test system: SNB-75 CNS
OVCAR-8 ovarian = test system: OVCAR-8 ovarian
SN12C renal = test system: SN12C renal
NCI/ADR-RES ovarian = test system: NCI/ADR-RES ovarian
786-0 renal = test system: 786-0 renal
UACC-62 melanoma = test system: UACC-62 melanoma
K-562 leukemia = test system: K-562 leukemia
SK-MEL-28 melanoma = test system: SK-MEL-28 melanoma
ACHN renal = test system: ACHN renal
SF-295 CNS = test system: SF-295 CNS
OVCAR-4 ovarian = test system: OVCAR-4 ovarian
BT-549 breast = test system: BT-549 breast
HS 578T breast = test system: HS 578T breast
HOP-62 NSCLC = test system: HOP-62 NSCLC
MDA-N = test system: MDA-N
UACC-257 melanoma = test system: UACC-257 melanoma
HT29 colon = test system: HT29 colon
MDA-MB-435 = test system: MDA-MB-435
HCT-15 colon = test system: HCT-15 colon
SF-539 CNS = test system: SF-539 CNS
DU-145 prostate = test system: DU-145 prostate
OVCAR-5 ovarian = test system: OVCAR-5 ovarian
SK-MEL-5 melanoma = test system: SK-MEL-5 melanoma
CCRF-CEM leukemia = test system: CCRF-CEM leukemia
HOP-92 NSCLC = test system: HOP-92 NSCLC
CAKI-1 renal = test system: CAKI-1 renal
COLO 205 colon = test system: COLO 205 colon
RXF 393 renal = test system: RXF 393 renal

Measured: TGI

Oc1ccc(Cc2cc(Cc3ccc(O)cc3)cc(Cc3ccc(O)cc3)c2)cc1
not listed: SK-MEL-5 melanoma | CCRF-CEM leukemia | HOP-92 NSCLC | CAKI-1 renal | COLO 205 colon | RXF 393 renal
> 50 µM: all other assays above

O=S(=O)(c1ccccc1)c1cccc2c1NCCC2
52 µM: SK-MEL-5 melanoma
90.1 µM: RXF 393 renal
> 10 µM: SK-OV-3 ovarian | SK-MEL-2 melanoma | UACC-62 melanoma | COLO 205 colon
76.9 µM: UACC-257 melanoma
67.4 µM: HL-60(TB) leukemia
83 µM: BT-549 breast
not listed: U251 CNS | NCI-H522 lung
> 100 µM: all other assays above
